Measurements reported in patent publication US20230292752A1, “S[…] COMBINATIONS, COMPOSITIONS AND USE THEREOF” (UPL Corporation Limited, priority 2020, published 2023).

Legend:
Type in all cases: in vivo
Portulaca oleracea POROL = experiment: Field trial, clethodim and carfentrazone-ethyl, weed control on Portulaca oleracea
Method: (§1) Field trials were performed to evaluate the efficacy of present combination, clethodim and carfentrazone-ethyl on annual grass control and dicot control in perennial crops. • Grass weeds targeted: LOLSS, BROSS, ECHSS, DIGSS, SETS S • Dicot weeds targeted: ERISS, GERSS, Sonchus sp., CONAR, Malva sp (rosette stage when application, prior stem elongation, prior flowering, prior ground cover) • Application volume: 300 L/ha
(§2) Colby's equation was used to determine the herbicidal effects expected from the mixtures. (See Colby, S. R. Calculation of the synergistic and antagonistic response of herbicide combinations. Weeds 1967, 15, 20-22.)
(§3) The following equation was used to calculate the expected activity of mixtures containing two active ingredients, A and B:
(§4) Expected=A+B−(A×B/100) • A=observed efficacy of active component A at the same concentration as used in the mixture; • B=observed efficacy of active component B at the same concentration as used in the mixture. The ability of the compositions described herein to afford suitable weed control is illustrated by the efficacy data in Table 3 to 10
Biological Activity Observed with Synergistic Mixtures of Clethodim and Carfentrazone in Applications on Portulaca oleracea POROL (n=1) 14 DAA.

Senecio vulgaris SENVU = experiment: Field trial, clethodim and carfentrazone-ethyl, weed control on Senecio vulgaris
Method: as §1, §2, §3, §4
Biological Activity Observed with Synergistic Mixtures of Clethodim and Carfentrazone in Applications on Senecio vulgaris SENVU (n=1) 14 DAA.

Lolium multiflorum LOLMU = experiment: Field trial, clethodim and carfentrazone-ethyl, weed control on Lolium multiflorum
Method: as §1, §2, §3, §4
Biological Activity Observed with Synergistic Mixtures of Clethodim and Carfentrazone in Applications on Lolium multiflorum LOLMU (n=2) 56-59 DAA was represented in table below

[1] = tested on: Convolvulus arvensis CONAR; experiment: Field trial, clethodim and carfentrazone-ethyl, weed control on Convolvulus arvensis
Method: as §1, §2, §3, §4
Biological Activity Observed with Synergistic Mixtures of Clethodim and Carfentrazone in Applications on Convolvulus arvensis CONAR (n=2) 14-15 DAA.

[2] = tested on: Echinochloa crus-galli ECHCG; experiment: Field trial, clethodim and carfentrazone-ethyl, weed control on Echinochloa crus-galli
Method: as §1, §2, §3, §4
Biological Activity Observed with Synergistic Mixtures of Clethodim and Carfentrazone in Applications on Echinochloa crus-galli ECHCG (n=2) 56-59 DAA was represented in table below.

[3] = tested on: Digitaria sanguinalis DIGSA; experiment: Field trial, clethodim and carfentrazone-ethyl, weed control on Digitaria sanguinalis
Method: as §1, §2, §3, §4
Biological Activity Observed with Synergistic Mixtures of Clethodim and Carfentrazone (Carfentrazone-ethyl) in Applications on Digitaria sanguinalis DIGSA (n=2) at 56-59 DAA was represented in table below.

Sonchus oleraceus SONOL = experiment: Field trial, clethodim and carfentrazone-ethyl, weed control on Sonchus oleraceus
Method: as §1, §2, §3, §4
Biological Activity Observed with Synergistic Mixtures of Clethodim and Carfentrazone in Applications on Sonchus oleraceus SONOL (n=2) 14-15 DAA

Setaria pumila SETPU = experiment: Field trial, clethodim and carfentrazone-ethyl, weed control on Setaria pumila
Method: as §1, §2, §3, §4
Biological Activity Observed with Synergistic Mixtures of Clethodim and Carfentrazone in Applications on Setaria pumila SETPU (n=1) 56-59 DAA was represented in table below

Green foxtail = experiment: Pot trial, clethodim and pyraflufen-ethyl, green foxtail; conditions: 4 DAT
Method: (§5) Pot trials for clethodim, pyraflufen-ethyl and their combination (premix and tan-mix) were carried out against green foxtail, large crabgrass and Bermuda grass

Bermuda grass = experiment: Pot trial, clethodim and pyraflufen-ethyl, Bermuda grass; conditions: 4 DAT
Method: as §5

Large crabgrass = experiment: Pot trial, clethodim and pyraflufen-ethyl, large crabgrass; conditions: 4 DAT
Method: as §5

Setaria weeds = experiment: Trial on table grapes, clethodim and pyraflufen-ethyl, Setaria weed control; conditions: 28 days after treatment
Method: Clethodim and pyraflufen-ethyl were tested on table grapes as individual applications, premix and tank-mix combinations. The products were formulated as an EC formulation and compared with Glufosinate SC. Effect of the treatment was checked on Setaria weeds at 28 days after treatment.

[4] = carfentrazone 20 gai/ha, clethodim 0, n=1
[5] = carfentrazone 30 gai/ha, clethodim 0, n=1
[6] = carfentrazone 45 gai/ha, clethodim 0, n=1
[7] = carfentrazone 60 gai/ha, clethodim 0, n=1
[8] = carfentrazone 12 gai/ha, clethodim 0, n=1
[9] = carfentrazone 30 gai/ha, clethodim 0, n=2
[10] = carfentrazone 45 gai/ha, clethodim 0, n=2
[11] = carfentrazone 60 gai/ha, clethodim 0, n=2
[12] = clethodim 120 gai/ha, carfentrazone 0, n=1
[13] = clethodim 180 gai/ha, carfentrazone 0, n=1
[14] = clethodim 72 gai/ha, carfentrazone 0, n=1
[15] = clethodim 120 gai/ha, carfentrazone 0, n=2
[16] = clethodim 180 gai/ha, carfentrazone 0, n=2

## CCOC(=O)C(Cl)Cc1cc(-n2nc(C)n(C(F)F)c2=O)c(F)cc1Cl (stereo not shown) [Carfentrazone, Carfentrazone-ethyl]
Portulaca oleracea POROL; [4]
  Observed Efficacy (O) in % (14 DAA): 90%
Portulaca oleracea POROL; [5]
  Observed Efficacy (O) in % (14 DAA): 97%
Portulaca oleracea POROL; [6]
  Observed Efficacy (O) in % (14 DAA): 100%
Portulaca oleracea POROL; [7]
  Observed Efficacy (O) in % (14 DAA): 100%
Senecio vulgaris SENVU; [8]
  Observed Efficacy (O) in % (14 DAA): 88%
Senecio vulgaris SENVU; [4]
  Observed Efficacy (O) in % (14 DAA): 92%
Senecio vulgaris SENVU; [5]
  Observed Efficacy (O) in % (14 DAA): 97%
Senecio vulgaris SENVU; [6]
  Observed Efficacy (O) in % (14 DAA): 100%
Senecio vulgaris SENVU; [7]
  Observed Efficacy (O) in % (14 DAA): 100%
Lolium multiflorum LOLMU; [9]
  Observed Efficacy (O) in % (56-59 DAA): 50%
Lolium multiflorum LOLMU; [10]
  Observed Efficacy (O) in % (56-59 DAA): 50%
Lolium multiflorum LOLMU; [11]
  Observed Efficacy (O) in % (56-59 DAA): 50%
[1]; carfentrazone 12 gai/ha, clethodim 0, n=2
  Observed Efficacy (O) in % (14-15 DAA): 58%
[1]; [11]
  Observed Efficacy (O) in % (14-15 DAA): 93%
[2]; [9]
  Observed Efficacy (O) in % (56-59 DAA): 57%
[2]; [11]
  Observed Efficacy (O) in % (56-59 DAA): 59%
[3]; [9]
  Observed Efficacy (O) in % (56-59 DAA): 13%
[3]; [10]
  Observed Efficacy (O) in % (56-59 DAA): 27%
[3]; [11]
  Observed Efficacy (O) in % (56-59 DAA): 17%
Sonchus oleraceus SONOL; carfentrazone 20 gai/ha, clethodim 0, n=2
  Observed Efficacy (O) in % (14-15 DAA): 89%
Sonchus oleraceus SONOL; [9]
  Observed Efficacy (O) in % (14-15 DAA): 92%
Setaria pumila SETPU; [8]
  Observed Efficacy (O) in % (56-59 DAA): 0%
Setaria pumila SETPU; [4]
  Observed Efficacy (O) in % (56-59 DAA): 0%
Setaria pumila SETPU; [5]
  Observed Efficacy (O) in % (56-59 DAA): 0%
Setaria pumila SETPU; [6]
  Observed Efficacy (O) in % (56-59 DAA): 0%
Setaria pumila SETPU; [7]
  Observed Efficacy (O) in % (56-59 DAA): 0%

## CCSC(C)CC1CC(=O)C(/C(CC)=N/OC/C=C/Cl)=C(O)C1 (stereo not shown) [Clethodim]
Portulaca oleracea POROL; [12]
  Observed Efficacy (O) in % (14 DAA): 0%
Portulaca oleracea POROL; [13]
  Observed Efficacy (O) in % (14 DAA): 0%
Senecio vulgaris SENVU; [14]
  Observed Efficacy (O) in % (14 DAA): 0%
Senecio vulgaris SENVU; [12]
  Observed Efficacy (O) in % (14 DAA): 2%
Senecio vulgaris SENVU; [13]
  Observed Efficacy (O) in % (14 DAA): 0%
Green foxtail; 250 gai/ha
  % control (observed): 25%
Lolium multiflorum LOLMU; [15]
  Observed Efficacy (O) in % (56-59 DAA): 52%
Lolium multiflorum LOLMU; [16]
  Observed Efficacy (O) in % (56-59 DAA): 74%
[1]; clethodim 72 gai/ha, carfentrazone 0, n=2
  Observed Efficacy (O) in % (14-15 DAA): 8%
[1]; [15]
  Observed Efficacy (O) in % (14-15 DAA): 12%
[1]; [16]
  Observed Efficacy (O) in % (14-15 DAA): 8%
[2]; [15]
  Observed Efficacy (O) in % (56-59 DAA): 84%
[2]; [16]
  Observed Efficacy (O) in % (56-59 DAA): 97%
Bermuda grass; 250 gai/ha
  % control (observed): 20%
[3]; [15]
  Observed Efficacy (O) in % (56-59 DAA): 95%
[3]; [16]
  Observed Efficacy (O) in % (56-59 DAA): 97%
Sonchus oleraceus SONOL; [15]
  Observed Efficacy (O) in % (14-15 DAA): 13%
Setaria pumila SETPU; [14]
  Observed Efficacy (O) in % (56-59 DAA): 43%
Setaria pumila SETPU; [12]
  Observed Efficacy (O) in % (56-59 DAA): 50%
Setaria pumila SETPU; [13]
  Observed Efficacy (O) in % (56-59 DAA): 94%
Large crabgrass; 250 gai/ha
  % control (observed): 20%
Setaria weeds; 125 g ai/ha
  Weed control % (Observed efficacy): 85%

## CP(=O)(O)CCC(N)C(=O)O (stereo not shown) [Glufosinate]
Green foxtail; 350 gai/ha
  % control (observed): 65%
Green foxtail; 700 gai/ha
  % control (observed): 75%
Setaria weeds; 700 g ai/ha
  Weed control % (Observed efficacy): 85%

## CCOC(=O)COc1cc(-c2nn(C)c(OC(F)F)c2Cl)c(F)cc1Cl [Pyraflufen-ethyl]
Green foxtail; 24 gai/ha
  % control (observed): 20%
Bermuda grass; 24 gai/ha
  % control (observed): 10%
Large crabgrass; 24 gai/ha
  % control (observed): 10%
Setaria weeds; 12 g ai/ha, formulated with mineral oil
  Weed control % (Observed efficacy): 0%
